Laboratory results taken from patent US20230159538A1, “PYRROLIDINE-PYRAZOLES AS PYRUVATE KINASE ACTIVATORS” (Global Blood Therapeutics, Inc., priority 2020, published 2023).

Molecular target: T1, Human pyruvate kinase R (PKR) (Homo sapiens, UniProt P30613)
T1 construct: Human pyruvate kinase R (PKR), residues 14-574; 6x-His (N, cleaved yes); 8x-Arg (N, cleaved yes); SUMO (N, cleaved yes); host or cells: E. coli
Test: Biochemical assay for activation of pyruvate kinase R (Kinase-Glo luminescence, ATP generation)
Details: for AC50: 0.1 nM PKR, 2 mM FBP, 0.3 mM ADP, 0.1 mM PEP; for PKR % activation: maximal activation level relative to the activation level achieved by AG-348 @ 10 μM
Procedure: Proteins were translated as fusions with 6×-His, 8×-Arg, and SUMO at the N-terminus. […] All proteins were cloned, expressed in E. coli, and purified using similar protocols. Cells were grown at 30° C. in Luria-Bertani broth supplemented with 0.4% glucose to OD600=0.8 and induced with 0.4 mM IPTG at 16° C. for 18 hours. Cells were harvested by centrifugation, resuspended in 50 mM potassium phosphate pH 8.0, 500 mM NaCl, 25 mM imidazole pH 8.0, and 3 mM β-mercaptoethanol. Cells were lysed using a LM20 microfluidizer from Microfluidics (Westwood, Mass.). The crude lysate was immediately supplemented with 0.2 mM phenylmethylsulfonyl fluoride (PMSF) and centrifuged at 20,000 g for 20 minutes. The soluble fraction was subsequently incubated with 2 mL Ni-NTA (GE Healthcare) per 1,000 ODs for 1 hour at 4° C. Following incubation with the Ni-NTA resin, lysate was removed by pelleting resin at 2,500 g for 3 minutes and washed 3 times with 9 bed volumes of 50 mM potassium phosphate pH 8.0, 500 mM NaCl, 25 mM imidazole, and 3 mM β-mercaptoethanol. Following the batch wash Ni-NTA resin was loaded onto a gravity column and His-tagged protein was eluted with 6 bed volumes of 10 mM Tris/HCl pH 8.0, 200 mM NaCl, 500 mM imidazole, and 3 mM β-mercaptoethanol. Eluted protein was dialyzed overnight against 10 mM Tris/HCl pH 8.0, 200 mM NaCl, and 1 mM DTT and the 6×-His-8×-Arg-SUMO-tag was cleaved using a 20:1 molar ratio of protein:3C protease. The protein was purified by anion exchange chromatography on a HiTrapQ or MonoQ 10/100 GL column (GE Healthcare) via a linear NaCl gradient and twice by size exclusion chromatography using a Superdex S200 26/60 column (GE Healthcare) run in 10 mM Tris/HCl pH 8.0, 200 mM NaCl, 10 mM MgCl2, 1 mM DTT. Proteins were concentrated to ˜12 mg/mL for crystallization and flash frozen for storage.
Biochemical Assay for Activation of Pyruvate Kinase R
Activation of pyruvate kinase R (PKR) and pyruvate kinase M2 (PKM2) were measured using a luminescence based measurement of ATP generation and the Kinase-Glo luminescent kinase reagent kit.

T1 sequence (P30613 14-574): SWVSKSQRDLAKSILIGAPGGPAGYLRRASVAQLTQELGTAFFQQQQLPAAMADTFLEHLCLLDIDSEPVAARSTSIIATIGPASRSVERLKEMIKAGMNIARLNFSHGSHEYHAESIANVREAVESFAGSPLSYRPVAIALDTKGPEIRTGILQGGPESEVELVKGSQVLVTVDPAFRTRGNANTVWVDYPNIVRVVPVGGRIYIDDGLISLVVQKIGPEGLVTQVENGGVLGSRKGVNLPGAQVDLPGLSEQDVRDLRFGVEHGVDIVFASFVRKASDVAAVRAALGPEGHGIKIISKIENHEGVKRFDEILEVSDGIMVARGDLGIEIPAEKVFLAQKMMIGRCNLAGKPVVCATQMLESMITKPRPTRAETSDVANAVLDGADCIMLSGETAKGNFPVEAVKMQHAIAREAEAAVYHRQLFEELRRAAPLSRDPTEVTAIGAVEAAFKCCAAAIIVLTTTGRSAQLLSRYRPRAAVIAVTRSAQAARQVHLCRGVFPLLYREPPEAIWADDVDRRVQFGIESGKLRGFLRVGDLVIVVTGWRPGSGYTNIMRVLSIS

Row | SMILES | AC50 | PKR % activation
1 | O=C([C@@H](c1ccccc1)N1CCOCC1)N1Cc2cn(S(=O)(=O)c3ccc(OC(F)F)cc3)nc2C1 (single isomer, unassigned) [Compound 108, (2R)-1-{2-[4-(difluoromethoxy)benzenesulfonyl]-2H,4H,5H,6H-pyrrolo[3,4-c]pyrazol-5-yl}-2-(morpholin-4-yl)-2-phenylethan-1-one or (2S)-1-{2-[4-(difluoromethoxy)benzenesulfonyl]-2H,4H,5H,6H-pyrrolo[3,4-c]pyrazol-5-yl}-2-(morpholin-4-yl)-2-phenylethan-1-one] | > 10000 nM | 0%
2 | C[C@@H](O)[C@H](C(=O)N1Cc2cn(S(=O)(=O)c3ccc4ncsc4c3)nc2C1)c1ccccc1 [Compound 4] | 1810 nM | 100%
3 | C[C@@H](O)[C@H](C(=O)N1Cc2cn(S(=O)(=O)c3ccc4ncsc4c3)nc2C1)c1ccccc1 [Compound 6] | 2530 nM | 150%
4 | C[C@@H](O)[C@H](C(=O)N1Cc2cn(S(=O)(=O)c3ccc(OC(F)F)cc3)nc2C1)c1ccccc1 [Compound 9] | 147 nM | 131%
5 | C[C@@H](O)[C@H](C(=O)N1Cc2cn(S(=O)(=O)c3ccc(OC(F)F)cc3)nc2C1)c1ccccc1 [Compound 10] | 455 nM | 165%
6 | C[C@@H](O)[C@H](C(=O)N1Cc2cn(S(=O)(=O)c3ccc(OC(F)F)cc3)nc2C1)c1ccccc1 [Compound 11] | 7270 nM | 164%
7 | NCC(C(=O)N1Cc2cn(S(=O)(=O)c3ccc4ncsc4c3)nc2C1)c1ccccc1 (stereo not shown) [Compound 13, 3-amino-1-[2-(1,3-benzothiazole-6-sulfonyl)-2H,4H,5H,6H-pyrrolo[3,4-c]pyrazol-5-yl]-2-phenylpropan-1-one] | 167 nM | 
8 | N[C@@H](C(=O)N1Cc2cn(S(=O)(=O)c3ccc4c(c3)NCCO4)nc2C1)c1ccccc1 [Compound 16, (2R)-2-amino-1-[2-(3,4-dihydro-2H-1,4-benzoxazine-6-sulfonyl)-2H,4H,5H,6H-pyrrolo[3,4-c]pyrazol-5-yl]-2-phenylethan-1-one] | 156 nM | 
9 | O=C(N1Cc2cn(S(=O)(=O)c3ccc4ncsc4c3)nc2C1)C1(c2ccccc2)CCOC1 (stereo not shown) [Compound 18, 6-{[5-(3-phenyloxolane-3-carbonyl)-2H,4H,5H,6H-pyrrolo[3,4-c]pyrazol-2-yl]sulfonyl}-1,3-benzothiazole] | 83 nM | 
10 | O=C(N1Cc2cn(S(=O)(=O)c3ccc4ncsc4c3)nc2C1)C1(c2ccccc2)COCCN1 (stereo not shown) [Compound 21, 6-{[5-(3-phenylmorpholine-3-carbonyl)-2H,4H,5H,6H-pyrrolo[3,4-c]pyrazol-2-yl]sulfonyl}-1,3-benzothiazole] | 209 nM | 
11 | N[C@@H](C(=O)N1Cc2cn(S(=O)(=O)c3ccc4ncsc4c3)nc2C1)c1ccc(F)cc1 [Compound 28, (2R)-2-amino-1-[2-(1,3-benzothiazole-6-sulfonyl)-2H,4H,5H,6H-pyrrolo[3,4-c]pyrazol-5-yl]-2-(4-fluorophenyl)ethan-1-one] | 13 nM | 
12 | N[C@@H](C(=O)N1Cc2cn(S(=O)(=O)c3ccc(OC(F)F)cc3)nc2C1)c1cccc(OC(F)(F)F)c1 [Compound 30, (2R)-2-amino-1-{2-[4-(difluoromethoxy)benzenesulfonyl]-2H,4H,5H,6H-pyrrolo[3,4-c]pyrazol-5-yl}-2-[3-(trifluoromethoxy)phenyl]ethan-1-one] | 371 nM | 
13 | CC(C)(O)[C@H](C(=O)N1Cc2cn(S(=O)(=O)c3ccc4occc4c3)nc2C1)c1ccccc1 [Compound 33, (2R)-1-[2-(1-benzofuran-5-sulfonyl)-2H,4H,5H,6H-pyrrolo[3,4-c]pyrazol-5-yl]-3-hydroxy-3-methyl-2-phenylbutan-1-one] | 130 nM | 
14 | CC(C)(O)[C@@H](C(=O)N1Cc2cn(S(=O)(=O)c3ccc4occc4c3)nc2C1)c1ccccc1 [Compound 34, (2S)-1-[2-(1-benzofuran-5-sulfonyl)-2H,4H,5H,6H-pyrrolo[3,4-c]pyrazol-5-yl]-3-hydroxy-3-methyl-2-phenylbutan-1-one] | 210 nM | 
15 | N[C@H](C(=O)N1Cc2cn(S(=O)(=O)c3ccc4ncsc4c3)nc2C1)c1ccccc1F [Compound 38, (2S)-2-amino-1-[2-(1,3-benzothiazole-6-sulfonyl)-2H,4H,5H,6H-pyrrolo[3,4-c]pyrazol-5-yl]-2-(2-fluorophenyl)ethan-1-one] | 270 nM | 
16 | N[C@@H](C(=O)N1Cc2cn(S(=O)(=O)c3ccc(OC(F)F)cc3)nc2C1)c1ccc(F)cc1 [Compound 49, (2R)-2-amino-1-{2-[4-(difluoromethoxy)benzenesulfonyl]-2H,4H,5H,6H-pyrrolo[3,4-c]pyrazol-5-yl}-2-(4-fluorophenyl)ethan-1-one] | 17 nM | 
17 | N[C@@H](C(=O)N1Cc2cn(S(=O)(=O)c3ccc(OC(F)F)cc3)nc2C1)c1cccc(Cl)c1 [Compound 50, (2R)-2-amino-2-(3-chlorophenyl)-1-{2-[4-(difluoromethoxy)benzenesulfonyl]-2H,4H,5H,6H-pyrrolo[3,4-c]pyrazol-5-yl}ethan-1-one] | 71 nM | 
18 | N[C@@H](C(=O)N1Cc2cn(S(=O)(=O)c3ccc(OC(F)F)cc3)nc2C1)c1ccc(Cl)cc1 [Compound 51, (2R)-2-amino-2-(4-chlorophenyl)-1-{2-[4-(difluoromethoxy)benzenesulfonyl]-2H,4H,5H,6H-pyrrolo[3,4-c]pyrazol-5-yl}ethan-1-one] | 23 nM | 
19 | N[C@@H](C(=O)N1Cc2cn(S(=O)(=O)c3ccc4ncsc4c3)nc2C1)c1ccccc1Cl [Compound 52, (2R)-2-amino-1-[2-(1,3-benzothiazole-6-sulfonyl)-2H,4H,5H,6H-pyrrolo[3,4-c]pyrazol-5-yl]-2-(2-chlorophenyl)ethan-1-one] | 13 nM | 
20 | N[C@@H](C(=O)N1Cc2cn(S(=O)(=O)c3ccc4ncsc4c3)nc2C1)c1cccc(Cl)c1 [Compound 53, (2R)-2-amino-1-[2-(1,3-benzothiazole-6-sulfonyl)-2H,4H,5H,6H-pyrrolo[3,4-c]pyrazol-5-yl]-2-(3-chlorophenyl)ethan-1-one] | 36 nM | 
21 | N[C@@H](C(=O)N1Cc2cn(S(=O)(=O)c3ccc(OC(F)F)cc3)nc2C1)c1ccccc1F [Compound 56, (2R)-2-amino-1-{2-[4-(difluoromethoxy)benzenesulfonyl]-2H,4H,5H,6H-pyrrolo[3,4-c]pyrazol-5-yl}-2-(2-fluorophenyl)ethan-1-one] | 30 nM | 
22 | N[C@@H](C(=O)N1Cc2cn(S(=O)(=O)c3ccc4c(c3)NCCO4)nc2C1)c1ccccc1F [Compound 57, (2R)-2-amino-1-[2-(3,4-dihydro-2H-1,4-benzoxazine-6-sulfonyl)-2H,4H,5H,6H-pyrrolo[3,4-c]pyrazol-5-yl]-2-(2-fluorophenyl)ethan-1-one] | 17 nM | 
23 | N[C@@H](C(=O)N1Cc2cn(S(=O)(=O)c3ccc4c(c3)OCCO4)nc2C1)c1ccccc1F [Compound 58, (2R)-2-amino-1-[2-(2,3-dihydro-1,4-benzodioxine-6-sulfonyl)-2H,4H,5H,6H-pyrrolo[3,4-c]pyrazol-5-yl]-2-(2-fluorophenyl)ethan-1-one] | 25 nM | 
24 | Cc1ccccc1[C@@H](N)C(=O)N1Cc2cn(S(=O)(=O)c3ccc4ncsc4c3)nc2C1 [Compound 59, (2R)-2-amino-1-[2-(1,3-benzothiazole-6-sulfonyl)-2H,4H,5H,6H-pyrrolo[3,4-c]pyrazol-5-yl]-2-(2-methylphenyl)ethan-1-one] | 48 nM | 
25 | C[C@](N)(C(=O)N1Cc2cn(S(=O)(=O)c3ccc4ncsc4c3)nc2C1)c1ccccc1 [Compound 60, (2R)-2-amino-1-[2-(1,3-benzothiazole-6-sulfonyl)-2H,4H,5H,6H-pyrrolo[3,4-c]pyrazol-5-yl]-2-phenylpropan-1-one] | 77 nM | 
26 | N[C@@H](C(=O)N1Cc2cn(S(=O)(=O)c3ccc4ncsc4c3)nc2C1)c1ccccc1Cl [Compound 63, (2R)-2-amino-1-[2-(1,3-benzothiazole-6-sulfonyl)-2H,4H,5H,6H-pyrrolo[3,4-c]pyrazol-5-yl]-2-(2-chlorophenyl)ethan-1-one] | 8.3 nM | 
27 | N[C@@H](C(=O)N1Cc2cn(S(=O)(=O)c3ccc4occc4c3)nc2C1)c1ccccc1F [Compound 64, (2R)-2-amino-1-[2-(1-benzofuran-5-sulfonyl)-2H,4H,5H,6H-pyrrolo[3,4-c]pyrazol-5-yl]-2-(2-fluorophenyl)ethan-1-one] | 3.4 nM | 
28 | O=C([C@H](O)c1ccccc1Cl)N1Cc2cn(S(=O)(=O)c3ccc4ncsc4c3)nc2C1 [Compound 65, (2R)-1-[2-(1,3-benzothiazole-6-sulfonyl)-2H,4H,5H,6H-pyrrolo [3,4-c]pyrazol-5-yl]-2-(2-chlorophenyl)-2-hydroxyethan-1-one] | 6.2 nM | 
